Measurements taken from the kinase profiling compilation of Christmann-Franck et al. (2016).

How the values were obtained:
Assay in all cases: KINOMEscan competition binding
Conditions in all cases: compound 10.0 µM
[1] = biological target: MAP3K5 (human) (UniProt Q99683)
[2] = biological target: IKBKB (human) (UniProt O14920)
[3] = biological target: PDGFRA (human) (UniProt P16234)
[4] = biological target: MARK2 (human) (UniProt Q7KZI7)
[5] = biological target: MAP4K4 (human) (UniProt O95819)
[6] = biological target: PRKCE (human) (UniProt Q02156)
[7] = biological target: CAMK2A (human) (UniProt Q9UQM7)
[8] = biological target: TXK (human) (UniProt P42681)
[9] = biological target: SLK (human) (UniProt Q9H2G2)
[10] = biological target: PRKCH (human) (UniProt P24723)
[11] = biological target: STK17A (human) (UniProt Q9UEE5)
[12] = biological target: DAPK3 (human) (UniProt O43293)
[13] = biological target: PIK3CD (human) (UniProt O00329)
[14] = biological target: NEK2 (human) (UniProt P51955)
[15] = biological target: CDK3 (human) (UniProt Q00526)
[16] = biological target: CAMK2G (human) (UniProt Q13555)
[17] = biological target: PKMYT1 (human) (UniProt Q99640)
[18] = biological target: RIPK4 (human) (UniProt P57078)
[19] = biological target: FGFR3 (human) (UniProt P22607)
[20] = biological target: TGFBR1 (human) (UniProt P36897)
[21] = biological target: CAMK1D (human) (UniProt Q8IU85)
[22] = tested on: EGFR (human), P00533 [G719C]
[23] = biological target: ABL2 (human) (UniProt P42684)
[24] = biological target: CDK17 (human) (UniProt Q00537)
[25] = biological target: EPHB1 (human) (UniProt P54762)
[26] = biological target: MERTK (human) (UniProt Q12866)
[27] = biological target: SRPK1 (human) (UniProt Q96SB4)
[28] = biological target: BMPR1A (human) (UniProt P36894)
[29] = tested on: FLT3 (human), P36888 [D835Y]
[30] = biological target: NEK6 (human) (UniProt Q9HC98)
[31] = biological target: CAMKK1 (human) (UniProt Q8N5S9)
[32] = biological target: RET (human) (UniProt P07949)
[33] = biological target: SIK2 (human) (UniProt Q9H0K1)
[34] = biological target: EPHA7 (human) (UniProt Q15375)
[35] = biological target: ROCK1 (human) (UniProt Q13464)
[36] = biological target: MAP3K13 (human) (UniProt O43283)
[37] = biological target: OXSR1 (human) (UniProt O95747)
[38] = biological target: HIPK3 (human) (UniProt Q9H422)

Chain of EPHA7 (human) (Q15375 whole entry, looked up): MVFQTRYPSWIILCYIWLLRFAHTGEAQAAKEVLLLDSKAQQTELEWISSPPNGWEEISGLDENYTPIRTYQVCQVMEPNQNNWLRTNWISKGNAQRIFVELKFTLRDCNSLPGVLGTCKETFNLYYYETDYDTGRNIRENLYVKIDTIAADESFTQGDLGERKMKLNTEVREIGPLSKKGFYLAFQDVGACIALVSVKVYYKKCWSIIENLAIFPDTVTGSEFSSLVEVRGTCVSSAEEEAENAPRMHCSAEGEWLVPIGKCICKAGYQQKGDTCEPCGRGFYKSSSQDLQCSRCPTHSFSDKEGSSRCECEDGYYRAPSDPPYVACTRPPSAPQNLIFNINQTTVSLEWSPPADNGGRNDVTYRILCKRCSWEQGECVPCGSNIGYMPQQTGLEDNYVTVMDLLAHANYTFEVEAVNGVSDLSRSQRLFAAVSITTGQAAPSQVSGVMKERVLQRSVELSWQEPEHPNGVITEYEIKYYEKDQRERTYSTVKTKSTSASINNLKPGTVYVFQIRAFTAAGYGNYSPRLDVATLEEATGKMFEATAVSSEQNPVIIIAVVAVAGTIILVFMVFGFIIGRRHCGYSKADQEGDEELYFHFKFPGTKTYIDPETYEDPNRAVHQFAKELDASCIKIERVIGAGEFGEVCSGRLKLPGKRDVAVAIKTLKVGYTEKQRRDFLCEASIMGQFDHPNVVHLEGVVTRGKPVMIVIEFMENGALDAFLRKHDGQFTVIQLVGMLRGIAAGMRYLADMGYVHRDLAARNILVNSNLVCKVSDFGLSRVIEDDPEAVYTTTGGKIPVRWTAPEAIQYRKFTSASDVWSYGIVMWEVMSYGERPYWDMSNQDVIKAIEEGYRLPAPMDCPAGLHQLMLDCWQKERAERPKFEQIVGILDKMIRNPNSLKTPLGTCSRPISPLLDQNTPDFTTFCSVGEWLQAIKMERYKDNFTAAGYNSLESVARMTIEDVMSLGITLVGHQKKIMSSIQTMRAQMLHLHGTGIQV
Chain of PIK3CD (human) (O00329 whole entry, looked up): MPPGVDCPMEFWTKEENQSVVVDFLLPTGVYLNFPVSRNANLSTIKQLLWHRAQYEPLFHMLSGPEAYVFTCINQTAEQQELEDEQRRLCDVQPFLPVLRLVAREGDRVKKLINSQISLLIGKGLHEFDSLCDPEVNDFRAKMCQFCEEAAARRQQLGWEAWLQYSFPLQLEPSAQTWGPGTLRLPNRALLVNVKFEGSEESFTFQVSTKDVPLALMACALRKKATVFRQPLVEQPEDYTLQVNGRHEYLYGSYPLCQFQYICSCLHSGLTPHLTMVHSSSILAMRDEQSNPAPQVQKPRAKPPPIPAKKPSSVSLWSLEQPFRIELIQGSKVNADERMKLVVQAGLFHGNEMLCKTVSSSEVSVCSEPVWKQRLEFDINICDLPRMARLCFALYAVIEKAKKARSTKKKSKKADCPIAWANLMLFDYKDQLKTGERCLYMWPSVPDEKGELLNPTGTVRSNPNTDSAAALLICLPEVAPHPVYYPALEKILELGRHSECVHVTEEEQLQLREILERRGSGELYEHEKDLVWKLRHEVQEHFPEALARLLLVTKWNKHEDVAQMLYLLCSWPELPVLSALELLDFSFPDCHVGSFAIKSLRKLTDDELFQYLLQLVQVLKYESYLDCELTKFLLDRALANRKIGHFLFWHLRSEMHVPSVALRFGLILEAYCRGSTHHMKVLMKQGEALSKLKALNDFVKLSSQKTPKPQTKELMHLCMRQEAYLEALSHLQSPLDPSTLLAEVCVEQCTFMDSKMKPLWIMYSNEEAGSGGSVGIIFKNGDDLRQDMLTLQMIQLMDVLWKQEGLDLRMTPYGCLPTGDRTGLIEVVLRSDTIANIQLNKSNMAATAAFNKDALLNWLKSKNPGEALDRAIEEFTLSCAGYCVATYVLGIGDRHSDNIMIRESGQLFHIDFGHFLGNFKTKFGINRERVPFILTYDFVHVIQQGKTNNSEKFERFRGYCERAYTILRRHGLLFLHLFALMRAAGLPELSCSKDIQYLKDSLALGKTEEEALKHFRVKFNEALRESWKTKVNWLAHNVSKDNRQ
Chain of MARK2 (human) (Q7KZI7 whole entry, looked up): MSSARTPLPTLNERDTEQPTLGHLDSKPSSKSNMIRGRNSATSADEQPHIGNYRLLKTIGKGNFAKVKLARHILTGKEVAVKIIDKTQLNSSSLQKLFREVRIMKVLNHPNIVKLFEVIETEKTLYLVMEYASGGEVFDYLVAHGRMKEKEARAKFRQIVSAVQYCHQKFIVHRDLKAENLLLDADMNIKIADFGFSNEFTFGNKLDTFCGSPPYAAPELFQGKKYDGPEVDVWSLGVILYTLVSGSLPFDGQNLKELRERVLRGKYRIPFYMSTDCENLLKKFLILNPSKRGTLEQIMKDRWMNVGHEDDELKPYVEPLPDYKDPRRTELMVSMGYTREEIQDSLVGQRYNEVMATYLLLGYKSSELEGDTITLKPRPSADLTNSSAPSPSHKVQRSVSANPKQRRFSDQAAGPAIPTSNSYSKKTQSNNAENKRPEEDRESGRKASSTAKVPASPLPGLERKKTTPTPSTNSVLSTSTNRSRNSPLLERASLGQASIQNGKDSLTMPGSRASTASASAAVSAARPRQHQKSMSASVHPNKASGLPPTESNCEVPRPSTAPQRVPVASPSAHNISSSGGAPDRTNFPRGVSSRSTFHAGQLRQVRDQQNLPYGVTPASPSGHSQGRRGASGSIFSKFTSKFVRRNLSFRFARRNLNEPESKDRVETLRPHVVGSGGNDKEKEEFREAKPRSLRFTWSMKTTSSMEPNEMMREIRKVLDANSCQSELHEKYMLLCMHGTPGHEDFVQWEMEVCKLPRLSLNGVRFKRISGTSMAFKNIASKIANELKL
Chain of MERTK (human) (Q12866 whole entry, looked up): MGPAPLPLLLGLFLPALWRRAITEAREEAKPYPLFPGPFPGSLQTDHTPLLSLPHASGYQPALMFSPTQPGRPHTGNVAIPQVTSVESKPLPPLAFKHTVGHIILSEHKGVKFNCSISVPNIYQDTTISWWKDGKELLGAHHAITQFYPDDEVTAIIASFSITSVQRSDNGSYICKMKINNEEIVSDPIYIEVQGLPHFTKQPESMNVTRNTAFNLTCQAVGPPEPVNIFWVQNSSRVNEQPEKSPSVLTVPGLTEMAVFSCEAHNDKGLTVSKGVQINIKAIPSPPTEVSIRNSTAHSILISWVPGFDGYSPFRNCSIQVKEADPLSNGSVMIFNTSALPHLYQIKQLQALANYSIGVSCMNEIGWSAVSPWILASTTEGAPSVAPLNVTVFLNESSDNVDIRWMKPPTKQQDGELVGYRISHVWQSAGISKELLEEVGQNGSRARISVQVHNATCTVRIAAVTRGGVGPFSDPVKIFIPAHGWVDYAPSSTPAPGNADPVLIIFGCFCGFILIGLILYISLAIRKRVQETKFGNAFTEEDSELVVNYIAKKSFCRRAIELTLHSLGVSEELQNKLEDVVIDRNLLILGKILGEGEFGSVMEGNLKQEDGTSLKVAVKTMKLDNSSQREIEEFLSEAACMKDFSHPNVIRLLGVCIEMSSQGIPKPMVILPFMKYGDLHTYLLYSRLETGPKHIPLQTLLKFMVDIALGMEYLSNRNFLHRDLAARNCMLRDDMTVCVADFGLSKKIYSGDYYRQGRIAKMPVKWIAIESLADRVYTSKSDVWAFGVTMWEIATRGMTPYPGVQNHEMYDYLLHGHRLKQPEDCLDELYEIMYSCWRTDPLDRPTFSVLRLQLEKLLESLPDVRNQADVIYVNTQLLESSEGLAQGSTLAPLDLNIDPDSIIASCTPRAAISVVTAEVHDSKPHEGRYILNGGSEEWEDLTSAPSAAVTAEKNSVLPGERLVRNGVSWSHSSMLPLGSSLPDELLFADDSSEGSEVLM
Chain of SLK (human) (Q9H2G2 whole entry, looked up): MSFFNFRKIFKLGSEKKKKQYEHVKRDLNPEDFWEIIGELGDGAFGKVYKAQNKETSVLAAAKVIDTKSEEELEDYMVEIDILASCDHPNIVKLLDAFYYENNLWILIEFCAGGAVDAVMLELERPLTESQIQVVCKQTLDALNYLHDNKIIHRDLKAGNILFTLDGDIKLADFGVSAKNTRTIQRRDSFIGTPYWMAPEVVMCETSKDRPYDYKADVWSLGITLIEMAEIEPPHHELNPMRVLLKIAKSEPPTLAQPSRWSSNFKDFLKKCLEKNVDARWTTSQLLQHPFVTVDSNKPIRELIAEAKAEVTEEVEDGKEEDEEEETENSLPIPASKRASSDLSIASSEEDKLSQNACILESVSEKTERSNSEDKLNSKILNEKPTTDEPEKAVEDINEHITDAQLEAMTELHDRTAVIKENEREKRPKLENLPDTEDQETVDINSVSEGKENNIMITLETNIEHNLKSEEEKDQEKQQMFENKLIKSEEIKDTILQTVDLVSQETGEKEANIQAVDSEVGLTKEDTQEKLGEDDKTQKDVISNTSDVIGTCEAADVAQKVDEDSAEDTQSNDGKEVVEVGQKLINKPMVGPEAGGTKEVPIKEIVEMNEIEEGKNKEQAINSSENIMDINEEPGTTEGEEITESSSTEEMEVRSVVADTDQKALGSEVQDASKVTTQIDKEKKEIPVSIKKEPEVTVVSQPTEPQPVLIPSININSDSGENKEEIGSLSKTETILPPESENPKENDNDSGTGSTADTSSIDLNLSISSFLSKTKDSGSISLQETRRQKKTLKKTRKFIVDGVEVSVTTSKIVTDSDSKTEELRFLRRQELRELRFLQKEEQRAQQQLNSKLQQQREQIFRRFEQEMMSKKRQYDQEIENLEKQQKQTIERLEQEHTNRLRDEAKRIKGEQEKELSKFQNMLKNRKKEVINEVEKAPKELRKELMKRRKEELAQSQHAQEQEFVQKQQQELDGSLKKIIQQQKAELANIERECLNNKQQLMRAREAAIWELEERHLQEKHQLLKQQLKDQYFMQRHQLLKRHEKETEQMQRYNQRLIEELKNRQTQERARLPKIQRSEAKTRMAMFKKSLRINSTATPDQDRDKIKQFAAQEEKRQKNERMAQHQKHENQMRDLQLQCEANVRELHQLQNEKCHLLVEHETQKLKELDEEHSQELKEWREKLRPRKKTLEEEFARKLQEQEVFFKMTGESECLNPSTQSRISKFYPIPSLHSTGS

SMILES	kinase still bound, per cent of control [1] [%]	kinase still bound, per cent of control [3] [%]	kinase still bound, per cent of control [4] [%]	kinase still bound, per cent of control [5] [%]	kinase still bound, per cent of control [6] [%]	kinase still bound, per cent of control [7] [%]	kinase still bound, per cent of control [8] [%]	kinase still bound, per cent of control [9] [%]	kinase still bound, per cent of control [10] [%]	kinase still bound, per cent of control [11] [%]	kinase still bound, per cent of control [12] [%]	kinase still bound, per cent of control [14] [%]	kinase still bound, per cent of control [15] [%]	kinase still bound, per cent of control [16] [%]	kinase still bound, per cent of control [17] [%]	kinase still bound, per cent of control [19] [%]	kinase still bound, per cent of control [20] [%]	kinase still bound, per cent of control [21] [%]	kinase still bound, per cent of control [22] [%]	kinase still bound, per cent of control [23] [%]	also measured
COc1cc(C)c(Sc2cnc(NC(=O)c3ccc(CNC(C)C(C)C)cc3)s2)cc1C(=O)N1CCN(C(C)=O)CC1 (stereo unspecified)	100	100	100	100	100	100	100	31	100	100	100	18	100	100	100	100	100	100	100	100	kinase still bound, per cent of control [2]: 100%; kinase still bound, per cent of control [13]: 100%; kinase still bound, per cent of control [18]: 100%; kinase still bound, per cent of control [24]: 100%; kinase still bound, per cent of control [25]: 24%; kinase still bound, per cent of control [26]: 3.2%; kinase still bound, per cent of control [27]: 100%; kinase still bound, per cent of control [28]: 100%; kinase still bound, per cent of control [29]: 26%; kinase still bound, per cent of control [30]: 34%; kinase still bound, per cent of control [31]: 100%; kinase still bound, per cent of control [32]: 100%; kinase still bound, per cent of control [33]: 100%; kinase still bound, per cent of control [34]: 100%
COc1ccc(N(C(=O)Oc2cc(C(=O)Nc3cccc(C(F)(F)F)c3)ccc2C)c2ccnc(Nc3ccc(N4CCN(C)CC4)cc3)n2)c(OC)c1	100	8.6	100	7	100	100	0.65	0.15	100	100	100	100	100	100	100	3.7	100	100	23	0.35	kinase still bound, per cent of control [24]: 100%; kinase still bound, per cent of control [25]: 0.15%; kinase still bound, per cent of control [26]: 1.2%; kinase still bound, per cent of control [27]: 100%; kinase still bound, per cent of control [29]: 100%; kinase still bound, per cent of control [30]: 100%; kinase still bound, per cent of control [31]: 100%; kinase still bound, per cent of control [32]: 0.35%; kinase still bound, per cent of control [33]: 1.9%; kinase still bound, per cent of control [34]: 0.6%
COc1cc(N2CCC(C(N)=O)CC2)ccc1Nc1nc(N)c(Cl)c(Nc2ccccc2S(=O)(=O)C(C)C)n1	100	100	100	100	100	32	100	2.6	100	100	100	100	100	100	100	100	100	100	20	100	kinase still bound, per cent of control [2]: 100%; kinase still bound, per cent of control [13]: 100%; kinase still bound, per cent of control [18]: 100%; kinase still bound, per cent of control [24]: 100%; kinase still bound, per cent of control [25]: 100%; kinase still bound, per cent of control [26]: 32%; kinase still bound, per cent of control [27]: 100%; kinase still bound, per cent of control [28]: 100%; kinase still bound, per cent of control [29]: 5.2%; kinase still bound, per cent of control [30]: 100%; kinase still bound, per cent of control [31]: 18%; kinase still bound, per cent of control [32]: 100%; kinase still bound, per cent of control [33]: 100%; kinase still bound, per cent of control [34]: 15%
Cc1cn(-c2cc(C(=O)Nc3ccc(C)c(NC(=O)c4ccno4)c3)cc(C(F)(F)F)c2)cn1	100	1.2	100	100	100	100	12	100	100	100	100	100	100	100	100	100	100	100	100	1.8	kinase still bound, per cent of control [2]: 100%; kinase still bound, per cent of control [35]: 100%; kinase still bound, per cent of control [13]: 100%; kinase still bound, per cent of control [36]: 100%; kinase still bound, per cent of control [18]: 100%; kinase still bound, per cent of control [37]: 100%; kinase still bound, per cent of control [24]: 100%; kinase still bound, per cent of control [25]: 21%; kinase still bound, per cent of control [26]: 100%; kinase still bound, per cent of control [27]: 100%; kinase still bound, per cent of control [28]: 100%; kinase still bound, per cent of control [29]: 100%; kinase still bound, per cent of control [30]: 100%; kinase still bound, per cent of control [31]: 100%; kinase still bound, per cent of control [32]: 100%; kinase still bound, per cent of control [38]: 100%; kinase still bound, per cent of control [33]: 100%; kinase still bound, per cent of control [34]: 100%
